# In publication PMC3076504 (2011):
# Biological target: Isocitrate lyase (ICL) (Mycobacterium tuberculosis, UniProt P9WKK7)
# Assay: colorimetric glyoxylate-phenylhydrazone assay at […] nm, dose response
# Assay type: biochemical
# Chain of Isocitrate lyase (ICL) (P9WKK7 whole entry): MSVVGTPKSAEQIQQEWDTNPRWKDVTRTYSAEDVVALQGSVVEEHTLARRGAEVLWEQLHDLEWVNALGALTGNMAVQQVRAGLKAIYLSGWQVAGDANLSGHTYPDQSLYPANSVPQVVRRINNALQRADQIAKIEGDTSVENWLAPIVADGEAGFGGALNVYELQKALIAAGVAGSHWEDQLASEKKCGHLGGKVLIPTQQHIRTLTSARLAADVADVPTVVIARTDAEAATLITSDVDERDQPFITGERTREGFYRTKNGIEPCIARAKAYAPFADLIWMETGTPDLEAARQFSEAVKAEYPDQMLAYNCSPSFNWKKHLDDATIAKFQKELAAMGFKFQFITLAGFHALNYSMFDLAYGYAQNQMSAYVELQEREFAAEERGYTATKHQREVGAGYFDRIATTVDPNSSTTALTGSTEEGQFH
structure (smiles),measurement,value
O=C(O)C(=O)O [oxalic acid],IC50,13 mM
